Laboratory results as given in patent US20230295212A1 (ROME Therapeutics, Inc., priority 2022, published 2023).

How the values were obtained:
[1] = tested on: interferon-stimulated gene (ISG) response; assay: In vivo decitabine challenge model in C57BL/6 mice (ISG response); design: species or system mouse; conditions: decitabine i.p. 5 mg/kg, compound p.o. 0.6, 2.0, 6.0 mg/kg daily Day 0 to Day 4, IFIT2 v. GAPDH
Procedure: Exemplary compounds were tested for ability to alter the interferon-stimulated gene (ISG) response in C57BL/6 mice treated with decitabine. Assay procedures and results are described below. Twenty 9-11 week old C57BL/6 mice were acclimated to the lab for at least 5 days. Compound 23 was prepared in a 0.5% methylcellulose solution for p.o. administration. Decitabine (Sigma-Aldrich) was dissolved in sterile PBS (pH 7.4) and dosed within 30 minutes of preparation of the solution. Doses of both the compound and decitabine were administered once a day, every day from Day 0 to Day 4. On Day 0, mice were split into five groups of five mice and given their first dose of decitabine (i.p., 5 mg/kg) and compound 23. Dosing groups were: Decitabine and compound 23 were administered daily from Day 0 to Day 4. All mice were euthanized 1 hour after the last dose administration on Day 4. Spleens, liver, and terminal colon were collected, along with plasma from each animal. The fold changes in interferon-stimulated gene (ISG) expression was calculated by first normalizing to GAPDH gene using the Delta CT method. The CT (gene of interest)—CT (reference gene) was calculated to generate a delta CT for all samples. The fold change was then calculated by taking the Log2(Delta CT(control)—Delta CT (experimental). The control in this example was the PBS control animal group. The Taqman duplex assay was used to determine levels of GAPDH v. IFIT2. Twenty 9-11 week old C57BL/6 mice were acclimated to the lab for at least 5 days. Compound 2 was prepared in 20% PEG400 in PBS (final pH 4.5) for p.o. administration. Decitabine (Sigma) was dissolved in sterile PBS (pH 7.4) and dosed within 30 minutes of preparation of the solution. Doses of both Compound 2 and decitabine were administered once a day. On Day 0, mice were split into five groups of five mice and given their first dose of decitabine and Compound 2. […] The fold changes in interferon-stimulated gene (ISG, specifically IRF7 and MX1) expression was calculated by first normalizing to GAPDH gene using the Delta CT method. […]

[2] = biological target: T1, LINE1 reverse transcriptase (Homo sapiens, UniProt O00370); assay: Stable artificial-intron Cis LINE1 reporter assay (HeLa Tet-On 3G, Firefly luciferase); type: cell-based; conditions: HeLa L1 artificial-intron reporter cells, doxycycline 500 ng/mL, 72 h, class symbols
T1 construct: expressed in transfected cells; host or cells: HeLa Tet-On 3G (Takara, cat no 631183)
Procedure, shortened: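 HeLa Tet-On 3G clone stably carrying a bi-directional doxycycline-inducible artificial-intron LINE1 reporter, plated at 8,000 cells/well onto serially diluted compound. Expression induced with 500 ng/mL doxycycline (final); Firefly luciferase luminescence (Dual-Glo) read 72 h after plating as LINE1 activity.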

human PBMC = assay: Decitabine-stimulated human PBMC assay (IFN-β, cell viability); type: cell-based; conditions: 5 days; for IFN-β level: anti-CD3/anti-CD28, decitabine 10 μM
Procedure: EasySep buffer (32 mL, […] Technologies, cat. #20144) was used to dilute 8 mL of LRSC buffy coat (from fresh Leukopak) with gentle mixing. The diluted buffy coat (20 mL) was transferred into each of two SepMate 50 tubes, and the tubes were filled with 15 mL of Lyphoprep ([…], cat. #07851) density gradient. The SepMate tubes were then centrifuged at 1200G for 10 minutes at room temperature with the brake on. The top layer of supernatant was collected in SepMate tubes by quickly pouring it into a new 50 mL conical tube. The PBMCs were washed with EasySep buffer ×2 by centrifuging at 300G for 5 minutes. The cells were resuspended in 30 mL of EasySep and centrifuged at 100G for 5 minutes with the brake off, and the platelets were removed. The cells were then resuspended in 6 mL of 1×RBC lysis buffer (Invitrogen) and incubated at 37° C. for 5 minutes. 25 mL of EasySep buffer was then mixed into the tube and centrifuged at 300G for 5 minutes. The cells were resuspended in 10 mL of EasySep buffer and the cells were then counted with Cellometer (AO/PI). The PBMCs were resuspended in RPMI1640 (ThermoFisher)^+10% FBS (HyClone)^+μ/s at 3×10^6/mL. The PBMCs (100 μL, 300 k PBMCs) were then seeded in a 96-well flat bottom microplate (Corning) that had been precoated with 100 μL of anti-CD3 antibody (10 μg/mL in PBS, Biolegend) or PBS at 4° C., one day before the assay was commenced.
To each well the following solutions were added 1) 100 μL of cells (final cell number per well is 3×10^5 cell/well); 2) 25 μL of anti-CD28 antibody at 6×(5 μg/mL final concentration, Biolegend); 3) 25 μL of decitabine at 6×(10 μM final concentration); and 4) Compound in DMSO was dispensed directly into each well with a d300e digital dispenser (Tecan). The final concentration of DMSO for each well was normalized to 0.3%. The plate was incubated at 37° C. without any agitation for 5 days. Samples were collected 120 hours after incubation to determine IFN-0 and IL-2 levels using a U-PLEX Human IFN-β Assay Sector (5PL) (MSD, cat. #K151VIK-2).
After 5 days, the plate was spun down at 100×G for 5 minutes. Supernatants (100 μL) were collected for interferon β(IFN-β) analysis using the MSD assay noted above, and any residual supernatant was stored at −80° C.

[3] = tested on: THP1-Dual KO-TREX1 xenograft tumors; assay: Altering IFN production in THP1 TREX1 KO xenografts (compounds 2, 25, 40); type: in vivo, mouse; conditions: CB-17 SCID mice, decitabine 5 mg/kg IP, test compound 10, 30 or 100 mg/kg PO once daily 4 days, tumors 24 h post-last dose
Procedure: Exemplary compounds 2, 25 and 40 were tested for their ability to alter IFN levels in THP1-Dual™ KO-TREX1 xenografts in mice. Assay procedures are described below.
CB-17 SCID female mice were inoculated subcutaneously with 10 million THP1-Dual™ KO-TREX1 cells in 200 μl PBS with Matrigel (1:1) and grouped when tumor volume reached 350-400 mm^3. Mice bearing THP1-Dual™ KO-TREX1 xenograft tumors were then separated into 5 groups. Three groups were administered: (1) decitabine (DAC) at 5 mg/kg IP, once daily, for 4 days, and (2) test compound at 10, 30, or 100 mg/kg, PO, once daily, for 4 days. One group was administered decitabine (DAC) at 5 mg/kg IP, once daily, for 4 days, and the test compound vehicle control. The final group was administered the vehicle control from both the test compound and the vehicle control from decitabine. Decitabine is formulated in sterile PBS, pH 7.4, and Compound 2, 25, and 40 were formulated in 20% PEG400 in PBS.
Tumors were harvested 24 h post-last dose administered on day 4, ground in PBS at 50 Hz for 5 min, and kept on ice for 30 min while being vortexed every 5 min. […] Equal amounts of proteins were added to 96-well black plates, and luciferase signal was measured using the QUANTI-Luc™ detection medium according to manufacturer's instructions. Luminescence was measured using the EnVision® 2105 Multimode Plate Reader. […]

[4] = biological target: T2, LINE1 reverse transcriptase (recombinant MBP-tagged LINE1 protein (238-1061)) (Homo sapiens, UniProt O00370); assay: Homogeneous time-resolved fluorescence (HTRF) LINE1 RT assay; type: biochemical; conditions: triphosphate analogs, LINE1 enzyme 64 ng/well, 25° C. 60 minutes
T2 construct: recombinant MBP-tagged LINE1 protein (238-1061); made in house
Procedure: Exemplary triphosphate analogs were tested for the ability to inhibit LINE1 reverse transcriptase using a homogeneous time-resolved fluorescence (HTRF) assay. Assay procedures and results are described below.
The LINE1 reverse transcriptase homogeneous time-resolved fluorescence (HTRF) assay was performed with recombinant MBP-tagged LINE1 protein (238-1061) (generated and purified according to procedures in Dai L. et al. BMC Biochemistry 2011; 12:18) in a 384-well format. Test compound was serially diluted in DMSO and further diluted in the assay buffer (50 mM Tris-HCl, 50 mM KCl, 10 mM MgCl2, 10 mM DTT, pH 8.1) to achieve a final DMSO concentration of 1%. The serially diluted compound was mixed with 64 ng/well of LINE1 enzyme, 5 nM of pre-annealed template/biotin-primer pair (synthesized at Generay Biotechnology), 10 nM of Fluorescein-12-dCTP fluorescent probe (PerkinElmer), and 1 μM dGTP/dATP/dTTP (ThermoFisher Scientific) in the assay buffer. The template/biotin-primer sequences were as follows:
After incubating at 25° C. for 60 minutes, the detection reagent (20 mM EDTA with streptavidin-terbium cryptate, Cisbio Bioassay) in the PPI buffer (Cisbio Bioassay) was added, and the mixture was incubated at 25° C. for 30 minutes. At the end of the incubation, fluorescence was read at ex/em=337/485 nm and ex/em=337/520 nm on an Envision 2104 plate reader (PerkinElmer). The fluorescence ratio at 520/485 nm was used for the calculation. […] The IC50 was calculated by fitting the compound dose inhibition curve with a 4-parameter non-linear regression equation.

[5] = biological target: T3, HERV-K reverse transcriptase (Homo sapiens, UniProt V9H0F6); assay: Homogeneous time-resolved fluorescence (HTRF) HERV-K RT assay; type: biochemical; conditions: triphosphate analogs, HERV-K enzyme 16 ng/well, 25° C. 30 minutes
T3 construct: fused on or other part: C-terminal 8xHis tag
T3 sequence (V9H0F6 entry or part of it): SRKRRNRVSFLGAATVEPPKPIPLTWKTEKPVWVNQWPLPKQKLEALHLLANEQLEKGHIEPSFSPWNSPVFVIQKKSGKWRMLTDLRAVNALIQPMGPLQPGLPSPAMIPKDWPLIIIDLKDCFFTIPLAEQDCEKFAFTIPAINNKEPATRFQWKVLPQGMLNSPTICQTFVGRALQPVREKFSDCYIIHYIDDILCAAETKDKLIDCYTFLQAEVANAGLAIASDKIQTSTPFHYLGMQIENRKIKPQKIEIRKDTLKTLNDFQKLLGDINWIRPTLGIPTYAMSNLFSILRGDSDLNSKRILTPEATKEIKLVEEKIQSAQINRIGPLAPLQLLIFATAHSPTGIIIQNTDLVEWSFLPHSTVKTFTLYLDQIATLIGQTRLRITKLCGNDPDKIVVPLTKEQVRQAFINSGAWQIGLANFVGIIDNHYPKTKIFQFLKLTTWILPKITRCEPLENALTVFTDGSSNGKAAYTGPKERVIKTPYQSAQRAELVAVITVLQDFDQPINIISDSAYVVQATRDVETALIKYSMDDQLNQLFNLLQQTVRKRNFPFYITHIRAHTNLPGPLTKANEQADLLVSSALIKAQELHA
Procedure: Exemplary triphosphate analogs were tested for ability to inhibit HERV-K reverse transcriptase using a homogeneous time-resolved fluorescence (HTRF) assay. Assay procedures and results are described below.
The HERV-K reverse transcriptase homogeneous time-resolved fluorescence (HTRF) assay was performed in a 384-well format with HERV-K reverse transcriptase (2-596)-8His protein. Baculoviruses were created using Bac-to-Bac technology (Invitrogen). pFastflac donor plasmids containing HERV-K reverse transcriptase sequence (NCBI GenBank number AAC63291.1, J. Virology (1999) Vol. 73, No. 3, pp. 2365-2375) were transformed into DH10 Bac cells following the manufacturer's instructions. Recombinant bacmids were then isolated clonally and transfected into SF9 cells with lipofectin. HERV-K reverse transcriptase was expressed in the SF9 insect cells and then purified using immobilized metal affinity chromatography (IMAC) followed by size-exclusion chromatography (SEC).
Test compound was serially diluted in DMSO and further diluted in the assay buffer (50 mM Tris-HCl, 50 mM KCl, 10 mM MgCl2, 10 mM DTT, pH 8.1) to achieve a final DMSO concentration of 1%. The serially diluted compound was mixed with 16 ng/well of HERV-K enzyme, 5 nM of pre-annealed template/biotin-primer pair (synthesized at Geneway Biotechnology), 10 nM of Fluorescein-12-dCTP fluorescent probe (PerkinElmer), and 1 mM dGTP, dATP, and DTTP (ThermoFisher). The template/biotin-primer sequences were:
After incubating at 25° C. for 30 minutes, the detection reagent 20 mM EDTA with streptavidin-terbium cryptate (Cisbio Bioassay) in the PPI buffer (Cisbio Bioassay) was added, and the mixture was incubated at 25° C. for 60 minutes. At the end of the incubation, fluorescence was read at ex/em=337/485 nm and ex/em=337/520 nm on an Envision 2104 plate reader (PerkinElmer). The fluorescence ratio at 520/485 nm was used for the calculation. […] IC50 values were calculated by fitting the compound dose inhibition curve with a 4-parameter non-linear regression equation.

SMILES	change in interferon-stimulated gene (ISG) response (FIG. 2A) [1]	IC50 [2]	IFN-β level (human PBMC)	cell viability (human PBMC; decitabine 10 μM)	inhibition of DAC-induced IFN signal in THP1 tumors [3]	IC50 [4]	IC50 [5]
C#C[C@]1(CO)O[C@@H](n2cnc3c(N)nc(F)nc32)C[C@@H]1O [Compound 23, (2R,3S,5R)-5-(6-amino-2-fluoro-9H-purin-9-yl)-2-ethynyl-2-(hydroxymethyl) tetrahydrofuran-3-ol]	change in ISG response	≤ 50 nM	activated production of IFN-β				
C#C[C@]1(CO)O[C@@H](n2cnc3c(N)nc(Cl)nc32)C[C@@H]1O [Compound 25, (2R,3S,5R)-5-(6-amino-2-chloro-9H-purin-9-yl)-2-ethynyl-2-(hydroxymethyl) tetrahydrofuran-3-ol]		≤ 50 nM	activated production of IFN-β				
Nc1ccn([C@@H]2O[C@@](CO)(CCl)[C@@H](O)[C@@H]2F)c(=O)n1 [Compound 40, 4-amino-1-((2R,3S,4R,5R)-5-(chloromethyl)-3-fluoro-4-hydroxy-5-(hydroxymethyl)tetrahydrofuran-2-yl)pyrimidin-2(1H)-one]		≤ 50 nM	inhibition of IFN-0	some cell viability losses at higher concentrations	potent inhibition of DAC-induced IFN signal		
Nc1nc(=O)n([C@@H]2O[C@](CBr)(COP(=O)(O)OP(=O)(O)OP(=O)(O)O)[C@@H](O)[C@@H]2F)cc1F [Compound 86-TP, ((2R,3R,4S,5R)-5-(4-amino-5-fluoro-2-oxopyrimidin-1(2H)-yl)-2-(bromomethyl)-4-fluoro-3-hydroxytetrahydrofuran-2-yl) methyl tetrahydrogen triphosphate; tetrakis(triethylamine)]						1610 nM	> 10000 nM
